Measurements as given in patent US20090311237A1, “Combination therapy using a soluble hyaluronidase and a bisphosphonate” (priority 2008, published 2009).
Where two headings read alike, the source gives them in different places.

Assay: Pharmacokinetics of ZA in pig serum after IV or SC infusion with or without rHuPH20 (LC-MS-MS, non-compartmental analysis)
Type: in vivo
Conditions: female, Yorkshire, pig, serum, […]
Description: A pharmacokinetic study of zoledronic acid (ZA) co-administered with rHuPH20 in female Yorkshire swines was conducted. The primary objective of the study was to determine the bioavailability of zoledronic acid dosed via subcutaneous (SC) co-administration with human recombinant hyaluronidase PH20 (rHuPH20) and to compare the overall exposure to an equivalent IV dose.
Animals in Study Group 1 were dosed with 0.15 mg/kg ZA given via a 20-minute IV infusion. Animals in Study Groups 2 and 3 were dosed subcutaneously (SC) with 0.15 mg/kg ZA without and with rHuPH20, respectively, in different SC delivery volumes.
Following ZA dose administration, serial blood samples were collected via vascular access ports (VAPs) for serum preparation and determination of ZA concentrations. Blood collection times were at 1, 3, 5, 10, 15, 20, 30, 45, and 60 minutes, and at 1.5, 2, 3, 4, 6, 8, 10, 24, 48, and 72 hours post dose. Urine samples were also collected to compare excretion characteristics between IV and SC routes of administration. Collection times for urine were at 15 minutes before dosing (−15 min.), continuously from dose initiation to 2 hours post dose, and at 4, 6, 8, and 24 hours post dose thereafter.
Serum concentration of ZA was determined using a qualified LC-MS-MS assay after derivatization with diazomethane (Zhu, L S et al. (2006) Rapid Commun. Mass Spectrom. 20: 3421-3426; “Qualification Data of An LC-MS/MS Method for the Determination of Zoledronate in Porcine Serum”, MDS Pharma Services Study No. AA43671-01, Report Date 14 Sep. 2007). The assay range was from 2.0 to 400 ng/mL with a lower limit of quantitation (LLOQ) at 2.0 ng/mL. Urine concentration of ZA was determined by a similar well qualified LC-MS-MS method (“Qualification Data of An LC-MS/MS Method for the Determination of Zoledronate in Porcine Urine”, MDS Pharma Services Study No. AA43671-02, Report Date 14 Sep. 2007) with an assay LLOQ at 10 ng/mL.
Pharmacokinetic (PK) analyses of ZA serum concentration versus time data were conducted using WinNonlin v5.1 (Pharsight, Mountain View, Calif.). Non-compartmental analysis was used for derivation of primary and secondary pharmacokinetic (PK) parameters. AUC, Cmax, and Tmax were compared between dose routes, between co-administration with rHuPH20, and with dose of rHuPH20.

[1] = intravenous, animal ID 61, Study Group 1, IV 20 min infusion, ZA […], rHuPH20 0 U/mL, read-out: Zoledronic Acid Serum Concentration
[2] = intravenous, animal ID 67, Study Group 1, IV 20 min infusion, ZA […], rHuPH20 0 U/mL, read-out: Zoledronic Acid Serum Concentration

## O=P(O)(O)C(O)(Cn1ccnc1)P(=O)(O)O [ZA, 1-hydroxy-2-(1H-imidazol-1-yl)ethylidene-1,1-bisphosphonic acid]
[1]
  concentration at 2 h: 18.8 ng/mL
  concentration at 3 h: 6.1 ng/mL
  concentration at 4 h: 3.3 ng/mL
intravenous, animal ID 67, Study Group 1, IV 20 min infusion, ZA […], rHuPH20 0 U/mL, time 0.05 h, read-out: Zoledronic Acid Serum Concentration
  concentration at 0.05 h: 288 ng/mL
intravenous, animal ID 67, Study Group 1, IV 20 min infusion, ZA […], rHuPH20 0 U/mL, time 0.333 h, read-out: Zoledronic Acid Serum Concentration
  concentration at 0.333 h: 556 ng/mL
intravenous, animal ID 67, Study Group 1, IV 20 min infusion, ZA […], rHuPH20 0 U/mL, time 0.5 h, read-out: Zoledronic Acid Serum Concentration
  concentration at 0.5 h: 246 ng/mL
intravenous, animal ID 67, Study Group 1, IV 20 min infusion, ZA […], rHuPH20 0 U/mL, time 1 h, read-out: Zoledronic Acid Serum Concentration
  concentration at 1 h: 77.8 ng/mL
[2]
  concentration at 2 h: 16.6 ng/mL
  concentration at 3 h: 6.67 ng/mL
  concentration at 4 h: 3.35 ng/mL
iv, absolute clearance by non-compartmental analysis of the IV dose (from Table 13), used for Study Groups 2 and 3, read-out: Serum CL (converted)
  clearance: 7.34 mL/min/kg
iv, ZA […] 20-min IV infusion, individual pigs 57, 61, 67, read-out: CL (converted)
  clearance: 6.76 mL/min/kg
iv, ZA […] 20-min IV infusion, individual pigs 57, 61, 67, read-out: Tmax
  Tmax: 15 min
iv, ZA […] 20-min IV infusion, individual pigs 57, 61, 67, read-out: T½ λz (converted)
  half-life: 37.8 min
iv, ZA […] 20-min IV infusion, individual pigs 57, 61, 67, read-out: Vss
  Vd: 0.104 L/kg
iv, ZA […] 20-min IV infusion, individual pigs 57, 61, 67, read-out: Vz
  Vd: 0.371 L/kg
iv, ZA […] 20-min IV infusion, n=3, read-out: CL, mean (converted)
  clearance: 7.34 mL/min/kg
iv, ZA […] 20-min IV infusion, n=3, read-out: CL, median (converted)
  clearance: 7.36 mL/min/kg
iv, ZA […] 20-min IV infusion, n=3, read-out: Tmax, mean
  Tmax: 15 min
iv, ZA […] 20-min IV infusion, n=3, read-out: Tmax, median
  Tmax: 15 min
iv, ZA […] 20-min IV infusion, n=3, read-out: T½ λz, mean (converted)
  half-life: 43.2 ± 4.8 min
iv, ZA […] 20-min IV infusion, n=3, read-out: T½ λz, median (converted)
  half-life: 44.4 min
iv, ZA […] 20-min IV infusion, n=3, read-out: Vss, mean
  Vd: 0.123 L/kg
iv, ZA […] 20-min IV infusion, n=3, read-out: Vss, median
  Vd: 0.131 L/kg
iv, ZA […] 20-min IV infusion, n=3, read-out: Vz, mean
  Vd: 0.458 ± 0.0759 L/kg
iv, ZA […] 20-min IV infusion, n=3, read-out: Vz, median
  Vd: 0.498 L/kg
sc, pig 59, SC ZA […], 100 mL over 16 min, no rHuPH20, read-out: CL/F (converted)
  CL/F: 7.97 mL/min/kg
sc, pig 59, SC ZA […], 100 mL over 16 min, no rHuPH20, read-out: Tmax
  Tmax: 20 min
sc, pig 59, SC ZA […], 100 mL over 16 min, no rHuPH20, read-out: T½ λz (converted)
  half-life: 66 min
sc, pig 59, SC ZA […], 100 mL over 16 min, no rHuPH20, read-out: Vss/F
  Vd/F: 0.617 L/kg
sc, pig 59, SC ZA […], 100 mL over 16 min, no rHuPH20, read-out: Vz/F
  Vd/F: 0.76 L/kg
sc, pig 60, SC ZA […], 100 mL over 16 min, no rHuPH20, read-out: CL/F (converted)
  CL/F: 6.97 mL/min/kg
sc, pig 60, SC ZA […], 100 mL over 16 min, no rHuPH20, read-out: SC Bioavailability (0-1 h)
  bioavailability: 55.5%
sc, pig 60, SC ZA […], 100 mL over 16 min, no rHuPH20, read-out: SC Bioavailability (0-8 h)
  bioavailability: 105%
sc, pig 60, SC ZA […], 100 mL over 16 min, no rHuPH20, read-out: Tmax
  Tmax: 20 min
sc, pig 60, SC ZA […], 100 mL over 16 min, no rHuPH20, read-out: T½ λz (converted)
  half-life: 52.2 min
sc, pig 60, SC ZA […], 100 mL over 16 min, no rHuPH20, read-out: Vss/F
  Vd/F: 0.526 L/kg
sc, pig 60, SC ZA […], 100 mL over 16 min, no rHuPH20, read-out: Vz/F
  Vd/F: 0.524 L/kg
sc, pig 62, SC ZA […], 50 mL over 8 min, no rHuPH20, read-out: CL/F (converted)
  CL/F: 10.2 mL/min/kg
sc, pig 62, SC ZA […], 50 mL over 8 min, no rHuPH20, read-out: SC Bioavailability (0-1 h)
  bioavailability: 54%
sc, pig 62, SC ZA […], 50 mL over 8 min, no rHuPH20, read-out: SC Bioavailability (0-8 h)
  bioavailability: 71.9%
sc, pig 62, SC ZA […], 50 mL over 8 min, no rHuPH20, read-out: Tmax
  Tmax: 10 min
sc, pig 62, SC ZA […], 50 mL over 8 min, no rHuPH20, read-out: T½ λz (converted)
  half-life: 58.2 min
sc, pig 62, SC ZA […], 50 mL over 8 min, no rHuPH20, read-out: Vss/F
  Vd/F: 0.634 L/kg
sc, pig 62, SC ZA […], 50 mL over 8 min, no rHuPH20, read-out: Vz/F
  Vd/F: 0.852 L/kg
sc, pig 69, SC ZA […], 25 mL over 4 min, no rHuPH20, read-out: CL/F (converted)
  CL/F: 9.28 mL/min/kg
sc, pig 69, SC ZA […], 25 mL over 4 min, no rHuPH20, read-out: SC Bioavailability (0-1 h)
  bioavailability: 56.9%
sc, pig 69, SC ZA […], 25 mL over 4 min, no rHuPH20, read-out: SC Bioavailability (0-8 h)
  bioavailability: 78.8%
sc, pig 69, SC ZA […], 25 mL over 4 min, no rHuPH20, read-out: Tmax
  Tmax: 10 min
sc, pig 69, SC ZA […], 25 mL over 4 min, no rHuPH20, read-out: T½ λz (converted)
  half-life: 60.6 min
sc, pig 69, SC ZA […], 25 mL over 4 min, no rHuPH20, read-out: Vss/F
  Vd/F: 0.652 L/kg
sc, pig 69, SC ZA […], 25 mL over 4 min, no rHuPH20, read-out: Vz/F
  Vd/F: 0.811 L/kg
sc, pig 70, SC ZA […], 10 mL over 1.6 min, no rHuPH20, read-out: CL/F (converted)
  CL/F: 7.69 mL/min/kg
sc, pig 70, SC ZA […], 10 mL over 1.6 min, no rHuPH20, read-out: SC Bioavailability (0-1 h)
  bioavailability: 66.5%
sc, pig 70, SC ZA […], 10 mL over 1.6 min, no rHuPH20, read-out: SC Bioavailability (0-8 h)
  bioavailability: 95.1%
sc, pig 70, SC ZA […], 10 mL over 1.6 min, no rHuPH20, read-out: Tmax
  Tmax: 10 min
sc, pig 70, SC ZA […], 10 mL over 1.6 min, no rHuPH20, read-out: T½ λz (converted)
  half-life: 85.2 min
sc, pig 70, SC ZA […], 10 mL over 1.6 min, no rHuPH20, read-out: Vss/F
  Vd/F: 0.615 L/kg
sc, pig 70, SC ZA […], 10 mL over 1.6 min, no rHuPH20, read-out: Vz/F
  Vd/F: 0.947 L/kg
sc, SC ZA […], no rHuPH20 (Study Group 2), n=4, read-out: CL/F, mean (converted)
  CL/F: 8.52 mL/min/kg
sc, SC ZA […], no rHuPH20 (Study Group 2), n=4, read-out: CL/F, median (converted)
  CL/F: 8.48 mL/min/kg
sc, SC ZA […], no rHuPH20 (Study Group 2), n=4, read-out: SC Bioavailability (0-1 h), mean
  bioavailability: 58.2%
sc, SC ZA […], no rHuPH20 (Study Group 2), n=4, read-out: SC Bioavailability (0-1 h), median
  bioavailability: 56.2%
